Legend:
[1] = biological target: T1, HIV-1 Nucleocapsid Protein (NCp7) (Human immunodeficiency virus type 1 group M subtype B, UniProt P12493); test: Zinc extrusion assay (TSQ fluorescence) from the zinc fingers of HIV-1 nucleocapsid protein (NCp7); assay type: biochemical
T1 construct: The NCp7 protein containing 2 Zn-fingers and 2 Zn ions is incubated with drug
Text: The compounds of the present invention cause the extrusion of zinc from the nucleocapsid protein (NCp7) of HIV-1. The NC protein is highly conserved among all retroviruses (South T., Blake P., et al., Biochemistry, 1990;29:7786) and is essential for viral infectivity (Aldovini A. and Young R., J. Virology, 1990;64:1920 and Gorelick R., Nigida S., et al., J. Virology, 1990;64:3207). The zinc is normally held in NC proteins by 1 or 2 zinc fingers. In the case of HIV-1, 2 zinc fingers are present (Summers M., South T., et al., Biochemistry, 1990;29:329) and are involved specifically with the PSI site on viral RNA which controls the packaging of viral RNA. Interference of this packaging causes the formation of non-infectious virions (Dannull J., Surovoy A., et al., EMBO, 1994;13:1525). It has previously been shown that compounds that cause zinc extrusion have potent anti-HIV activity in multiple cell lines and against all retroviruses (Rice W., Schaeffer C., et al., Nature, 1993;361:473).
A fluorescence-based assay has been developed to monitor the ejection of zinc from purified HIV-1 NCp7. The fluorophore, N-(6-methoxy-8-quinolyl)-p-toluenesulfonamide (TSQ), has an increased fluorescent signal upon bonding zinc ion in solution. The NCp7 protein containing 2 Zn-fingers and 2 Zn ions is incubated with drug causing the extrusion of Zn ions. The released Zn is then sequestered by the TSQ and the increased fluorescence monitored relative to control. […] Fluorescence (excitation 355 nm emission 400 nm) was monitored versus time. Controls were the NCp7 under assay conditions without drug, and apo NCp7 (no Zn) with drug. The % Zn extrusion was calculated based on the actual fluorescence measured divided by the fluorescence of all theoretical Zn extruded (5.6 μM)×100.
Table 1 below presents data for several invention compounds evaluated in the zinc extrusion assay described above.

[2] = CEM cell growth inhibition (XTT, noninfected cells); assay type: cell-based; settings: human, CEM Cell Assay, drug alone, read-out: IC50 (Inhibitory Concentration where drug alone inhibits cell growth)
Procedure: (§1) Yet another test system employed to determine antiviral activity is called the CEM cell assay.
(§2) T4 lymphocytes (CEM cell line) are exposed to HIV at a virus to cell ratio approximately 0.05, and plated along with noninfected control cells in 96-well microliter plates.
(§3) The candidate agent is dissolved in dimethyl sulfoxide (unless otherwise noted), then diluted 1:200 in cell culture medium. Further dilutions (half-log10) are prepared before adding to an equal volume of medium containing either infected or noninfected cells. Cultures are incubated at 37° in a 5% carbon dioxide atmosphere for 6 or 7 days. The tetrazolium salt, XTT, is added to all wells, and cultures are incubated to allow formazan color development by viable cells (J. National Cancer Institute, 1989;81:577-586). Individual wells are analyzed spectrophotometrically to quantitate formazan production, and in addition are viewed microscopically for detection of viable cells confirmation of protective activity.
(§4) Drug-tested virus-infected cells are compared with drug-treated noninfected cells and with other appropriate controls (untreated infected and untreated noninfected cells, drug-contain wells without cells, etc.) on the same plate. Data are reviewed in comparison with other tests done at the same time and a determination about activity is made.

HIV-1 = test: CEM cell assay, anti-HIV-1 activity; assay type: cell-based; settings: Human immunodeficiency virus 1, CCRF-CEM, HIV-1, 6 or 7 days, read-out: EC50 (Effective Concentration which protects cells from viral cytopathic effects)
Text: The test systems utilized to establish the antiviral activity of the arylthio compounds of this invention are well recognized in the art and are routinely employed for such purpose. For example, the assay utilized to evaluate the compounds activity against the HIV virus is that employed by the U.S. National Cancer Institute as described by Weislow O. S., et al., J. Natl. Cancer Inst., 1989;81:577-586, incorporated herein by reference.
The procedure is designed to detect agents acting at any stage of the virus reproductive cycle. The assay basically involves the killing of T4 lymphocytes by HIV. Small amounts of HIV are added to cells, and at least two complete cycles of virus reproduction are necessary to obtain the required cell killing. Agents which interact with virions, cells, or virus gene-products to interfere with viral activities will protect cells from cytolysis. The system is automated in several features to accommodate large numbers of candidate agents, and is generally designed to detect anti-HIV activity. However, compounds which degenerate or are rapidly metabolized in the culture conditions may not show activity in this screen.
as §1, §2, §3, §4

[3] = 10 μM compound, 2.8 μM NCp7, pH 7.4, 26° C., 90 minutes

NS(=O)(=O)c1ccc(NC(=O)c2cccnc2SSc2ncccc2C(=O)Nc2ccc(S(N)(=O)=O)cc2)cc1 [Example 25, 2,2'-Dithiobis[N-[4-(aminosulfonyl)phenyl]-3-pyridinecarboxamide]]
% Zinc Extrusion Relative to Control [1, 3]: 73%

COc1ccc(C(=O)N[C@@H](CC(C)C)C(=O)O)c(SSc2cc(OC)ccc2C(=O)N[C@@H](CC(C)C)C(=O)O)c1 [Example 54, [S-(R*,R*)]2-{2-[2-(1-Carboxy-3-methyl-butyl]carbamoyl)-5-methoxy-phenyldisulfanyl]-4-methoxybenzoylamino}-4-methyl-pentanoic acid]
CC50 [2]: 75 µM | EC50 (HIV-1): 6.9 µM

O=C(Nc1ccc(Cl)cc1Cl)c1ccccc1SSc1ccccc1C(=O)Nc1ccc(Cl)cc1Cl [Example 84, 2,2'-Dithiobis[N-(2,4-dichlorophenyl)benzamide]]
% Zinc Extrusion Relative to Control [1, 3]: 50%

O=C(O)Cc1ccc(NC(=O)c2ccccc2SSc2ccccc2C(=O)Nc2ccc(CC(=O)O)cc2)cc1 [Example 108, (4-{2-[2-(4-Carboxymethyl-phenylcarbamoyl)-phenyldisulfanyl]-benzoylamino}-phenyl)-acetic acid]
CC50 [2]: 61 µM | EC50 (HIV-1): 5.9 µM

CC(C)NS(=O)(=O)c1ccc(NC(=O)c2ccccc2SSc2ccccc2C(=O)Nc2ccc(S(=O)(=O)NC(C)C)cc2)cc1 [Example 3, 2,2'-Dithiobis-N-[4[[(1-methylethyl)amino]sulfonyl]phenyl]benzamide]
% Zinc Extrusion Relative to Control [1, 3]: 73%

Cc1ccc(SSc2ccc(C)cc2C(=O)Nc2ccc(S(N)(=O)=O)cc2)c(C(=O)Nc2ccc(S(N)(=O)=O)cc2)c1 [Example 23, 2,2'-Dithiobis[N-[4-(aminosulfonyl)phenyl]-5-methylbenzamide]]
CC50 [2]: > 100 µM | EC50 (HIV-1): 4.3 µM

O=C(O)CN(CCN(CC(=O)O)CC(=O)O)CC(=O)O [EDTA, reference compound]
% Zinc Extrusion Relative to Control ([1]; EDTA, 24 hours): 10%

COC(=O)c1ccccc1SSc1ccccc1C(=O)Nc1ccc(S(N)(=O)=O)cc1 [Example 137, 2-[2-(4-Sulfamoylphenylcarbamoyl)phenyldisulfanyl]benzoic acid, methyl ester]
CC50 [2]: 65 µM | EC50 (HIV-1): 8.6 µM

CC(C)C[C@H](NC(=O)c1ccc(F)cc1SSc1cc(F)ccc1C(=O)N[C@@H](CC(C)C)C(=O)O)C(=O)O [Example 51, [S-(R*,R*)]2-{2-[2-(1-Carboxy-3-methyl-butylcarbamoyl)-5-fluoro-phenyldisulfanyl]-4-fluorobenzoylamino}-4-methyl-pentanoic acid]
CC50 [2]: 64 µM | EC50 (HIV-1): 8.4 µM

NS(=O)(=O)c1ccc(NC(=O)c2ccc(F)cc2SSc2cc(F)ccc2C(=O)Nc2ccc(S(N)(=O)=O)cc2)cc1 [Example 16, 2,2'-Dithiobis[N-[4-(aminosulfonyl)phenyl]-4-fluorobenzamide]]
CC50 [2]: 66 µM | EC50 (HIV-1): 2.5 µM

COc1ccc(SSc2ccc(OC)cc2C(N)=O)c(C(N)=O)c1 [Example 70, 2,2'-Dithiobis[5-methoxy-benzamide]]
% Zinc Extrusion Relative to Control [1, 3]: 74%

COc1ccc(C(=O)Nc2ccc(S(N)(=O)=O)cc2)c(SSc2cc(OC)ccc2C(=O)Nc2ccc(S(N)(=O)=O)cc2)c1 [Example 19, 2,2'-Dithiobis[N-[4-(aminosulfonyl)phenyl]-4-methoxybenzamide]]
CC50 [2]: > 100 µM | EC50 (HIV-1): 2.4 µM

CC(=O)Nc1ccc(SSc2ccc(NC(C)=O)cc2C(=O)N[C@@H](CC(C)C)C(=O)O)c(C(=O)N[C@@H](CC(C)C)C(=O)O)c1 [Example 60, [S-(R*,R*)]2-{5-Acetylamino-2-[4-acetylamino-2-(1-carboxy-3-methyl-butylcarbamoyl)-phenyldisulfanyl]-benzoylamino}-4-methyl-pentanoic acid]
% Zinc Extrusion Relative to Control [1, 3]: 65%

NS(=O)(=O)c1ccccc1NC(=O)c1ccccc1SSc1ccccc1C(=O)Nc1ccccc1S(N)(=O)=O [Example 102, 2,2'-Dithiobis[N-[2-(aminosulfonyl)phenyl]benzamide]]
CC50 [2]: 68 µM | EC50 (HIV-1): 1.7 µM

CC(C)(SSc1ccccc1C(=O)Nc1ccc(S(N)(=O)=O)cc1)C(N)C(=O)O (stereo not shown) [Example 138, 2-Amino-3-methyl-3-[2-(4-sulfamoylphenylcarbamoyl)phenyldisulfanyl]-butyric acid]
CC50 [2]: 66 µM | EC50 (HIV-1): 6.3 µM

CC(C)(C)[C@H](NC(=O)c1ccccc1SSc1ccccc1C(=O)N[C@H](C(=O)O)C(C)(C)C)C(=O)O [Example 48, L,L-2-{2-[2-(1-Carboxy-2,2-dimethyl-propylcarbamoyl)-phenyldisulfanyl]-benzoylamino}-3,3-dimethyl-butyric acid]
CC50 [2]: > 100 µM | EC50 (HIV-1): 18 µM

O=C(O)C[C@H](NC(=O)c1ccccc1SSc1ccccc1C(=O)N[C@@H](CC(=O)O)C(=O)O)C(=O)O [Example 62, L,L-2-{2-[2-(1,2-Dicarboxy-ethylcarbamoyl)-phenyldisulfanyl]-benzoylamino}-succinic acid]
% Zinc Extrusion Relative to Control [1, 3]: 73%

Cc1cccc(C(=O)N[C@@H](CC(C)C)C(=O)O)c1SSc1c(C)cccc1C(=O)N[C@@H](CC(C)C)C(=O)O [Example 56, [S-(R*,R*)]2-{2-[2-(1-Carboxy-3-methyl-butylcarbamoyl)-6-methyl-phenyldisulfanyl]-3-methyl-benzoylamino}-4-methyl-pentanoic acid]
% Zinc Extrusion Relative to Control [1, 3]: 73%

O=C(c1ccccc1)c1ccccc1SSc1ccccc1C(=NO)c1ccccc1 [Example 150, {2-[2-(hydroxyimino-phenyl-methyl)-phenyldisulfanyl]phenyl}-phenyl-methanon]
% Zinc Extrusion Relative to Control [1, 3]: 36%

O=C(O)c1ccc(NC(=O)c2ccccc2SSc2ccccc2C(=O)Nc2ccc(C(=O)O)cc2)cc1 [Example 106, 4,4'-[dithiobis(2,1-phenylenecarbonylimino)bisbenzoic acid]]
CC50 [2]: 22 µM | EC50 (HIV-1): 1.8 µM

CC(C)(C)C(=O)Nc1ccc(SSc2ccc(NC(=O)C(C)(C)C)cc2C(N)=O)c(C(N)=O)c1 [Example 73, 2,2'-Dithiobis[5-[(2,2-dimethyl-1-oxopropyl)amino]benzamide]]
CC50 [2]: 70 µM | EC50 (HIV-1): 5 µM

O=C(c1ccccc1SSc1ccccc1C(=O)N1CCSCC1)N1CCSCC1 [Example 113, {2-[2-(Thiomorpholine-4-carbonyl)-phenyldisulfanyl]phenyl}-thiomorpholin-4-yl-methanone]
% Zinc Extrusion Relative to Control [1, 3]: 67%

COc1cccc(C(=O)Nc2ccc(S(N)(=O)=O)cc2)c1SSc1c(OC)cccc1C(=O)Nc1ccc(S(N)(=O)=O)cc1 [Example 18, 2,2'-Dithiobis[N-[4-(aminosulfonyl)phenyl]-3-methoxybenzamide]]
% Zinc Extrusion Relative to Control [1, 3]: 67%

NS(=O)(=O)c1ccc(NS(=O)(=O)c2ccccc2SSc2ccccc2S(=O)(=O)Nc2ccc(S(N)(=O)=O)cc2)cc1 [Example 145]
% Zinc Extrusion Relative to Control [1, 3]: 65%

CS(=O)(=O)c1ccc(NC(=O)c2ccccc2SSc2ccccc2C(=O)Nc2ccc(S(C)(=O)=O)cc2)cc1 [Example 94, 2,2'-Dithiobis[N-[4-(methylsulfonyl)phenyl]benzamide]]
% Zinc Extrusion Relative to Control [1, 3]: 62%
